The text below walks through data of patent US20160213742A1, “COMPOSITIONS AND METHODS FOR THE TREATMENT OF FUNGAL INFECTIONS” (priority 2013, published 2016).

≈ marks a conversion by molar mass, not a printed value. Entries after “also recorded” stand apart in the source; their conditions may differ.

Common to all, as to type: cell-based
Test [1] has as its system C. albicans ATCC 90028. In words: microbe, parasite or virus in culture. The settings on record: ATCC 90028, pH 7. In a few lines:
(§1)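 RPMI pH 7.0 (CLSI), 2-fold serial dilutions, 1.25% DMSO final (investigational). Inoc: Candida 0.5 McF 1:100; Aspergillus ~0.2-2.5×10^4 CFU/mL. 35° C., ~24-48 hr. MIC = no visible growth; MEC = small compact hyphae vs growth control.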

Test [2] deals with C. glabrata ATCC 90030. In words: microbe, parasite or virus in culture. The settings on record: ATCC 90030, pH 7. Put shortly:
as §1

In test [3] the test system is C. krusei ATCC 14243. As to the kind of experiment: microbe, parasite or virus in culture. The settings on record: ATCC 14243, pH 7. Put shortly:
as §1

Test [4] relates to C. parapsilosis ATCC 22019. As to the kind of experiment: microbe, parasite or virus in culture. As to conditions: ATCC 22019, pH 7. Put shortly:
as §1

The test system of test [5] is A. flavus MX 5948. As to the kind of experiment: MEC assay (Example 31). As to conditions: RPMI pH 7.0, 35° C., 24-48 hr. In a few lines:
as §1

Test [6] has as its system A. fumigatus ATCC 13073. As to the kind of experiment: MEC assay (Example 31). As to conditions: RPMI pH 7.0, 35° C., 24-48 hr. In a few lines: as §1
The subject of test [7] is A. fumigatus MX 5944. In words: MEC assay (Example 31). The settings on record: RPMI pH 7.0, 35° C., 24-48 hr. Put shortly: as §1
In test [8] the test system is A. fumigatus MYA-3626. In words: MEC assay (Example 31). As to conditions: RPMI pH 7.0, 35° C., 24-48 hr. In a few lines:
as §1

Test [9] relates to A. fumigatus MYA-4609. As to the kind of experiment: MEC assay (Example 31). As to conditions: RPMI pH 7.0, 35° C., 24-48 hr. In a few lines: as §1
Test [10] has as its system Neutrophils purified from human peripheral blood. In words: Human Neutrophil Transwell Migration Assay. The settings on record: 37° C., 45 minutes, % of the maximum migration possible. The text has this:
Neutrophils were purified from human peripheral blood utilizing PolymorphPrep. Red blood cells were lysed with a lysis buffer and the cells were washed, counted and resuspended in assay buffer. Neutrophils (approximately 50,000 to 100,000 in number) were placed over 5-micon pore sized transwell plates in 24-well format with test compounds in the bottom chamber of each well. A negative control of media alone in the bottom chamber was set up in triplicate. A positive control where the neutrophils were added directly to the bottom well was set up in triplicate.
The plates were incubated at 37° C. for 45 minutes to allow for migration. After this time, migration was confirmed visually and then an aliquot (⅙^th of total cells) from each well was taken for ATP detection via luminescence with ATPlite (PerkinElmer) to quantify the number of migrated cells. The averaged reading for random migration detected in the negative control was subtracted from all readings to obtain the corrected migration number. These numbers were then divided by the averaged reading from the positive control to get the % Neutrophil Migration of the maximum migration possible.

Test [11] has as its system human neutrophils. As to the kind of experiment: Microfluidic Neutrophil Chemotaxis assay. The settings on record: for neutrophil (NF) migration counts (FIG. 1): 4 hour timepoint, relative to A. fumigatus alone. From the text: Two layers of photoresist (SU8; […] The wafer with patterned photoresist was used as a mold to produce polydimethylsiloxane (PDMS) (Fisher Scientific) devices, which were then bonded to the base of glass-bottom 12- or 24-well plates, using an oxygen plasma machine (Nordson-March). De-identified, fresh human blood samples from healthy volunteers, aged 18 years and older, who were not receiving immunosuppressants, were purchased from Research Blood Components, LLC. Peripheral blood was drawn in tubes containing a final concentration of 5 mM EDTA (Vacutainer; Becton Dickinson) and processed within 2 h of blood collection. Using a sterile technique, neutrophils were isolated from whole blood using HetaSep followed by the EasySep Human Neutrophil Enrichment Kit (STEMCELL Technologies) following the manufacturer's protocol. The purity of neutrophils was assessed to be >98% using the Sysmex KX-21N Hematology Analyzer (Sysmex America, Inc.). White blood cells were isolated using Hetasep followed by a 5 min spin down and wash with 1×PBS. White blood cells were stained with Hoechst (32.4 μM) (Sigma) following the manufacture's protocols. The final aliquots of white blood cells were resuspended in RPMI plus 10% fetal bovine serum (FBS−stock 50 mL FBS/450 mL RPMI) (Sigma-Aldrich) at a concentration of 20,000 cells/2 μL and kept at 37° C. Cells were then immediately introduced into the microfluidic device for the chemotaxis and Aspergillus fumigatus killing assay. All experiments were repeated at least three times with neutrophils or white blood cells from three different healthy donors. Immediately after bonding to the well plate, donut-shaped devices were filled with Aspergillus fumigatus conidia at a concentration of 10^6 cells/mL with or without either Compound 1 or Compound 11 [10 nM], caspofungin acetate [10 nM] and/or a solution of the chemoattractant N-formyl-methionyl-leucyl-phenylalanine (fMLP) [100 nM](Sigma-Aldrich, St. Louis, Mo.). The device was then placed in a vacuum for 15 min. The solution filled all of the FCCs as the air was displaced. The devices were then vigorously washed five times with 1×PBS to remove any residual Aspergillus fumigatus conidia, drug or chemoattractant that was outside of the FCCs. The device was then submerged in 0.5 mL of cell media. Neutrophils or white blood cells (20,000 cells/2 μL) were then pipetted into the cell loading chamber (CLC) using a gel-loading pipette tip. […] Image analysis of cell migration counts and fungi growth was analyzed by hand using Image J software. Neutrophil counts per chamber were counted every 15 min for the first 2 hours of the experiment and then every hour for the remaining 16 hours. Percentage of conidia that converted to hyphal growth was measured by counting conidia loaded per chamber before neutrophils or WBCs were loaded into the chamber and counting numbers of these conidia that grew hyphae by 18 hours. Fungal growth velocity was calculated using Image J. The 16 chambers in each device (n=3) were analyzed for at least three different healthy donors.

Test [12] deals with Aspergillus fumigatus strain AF293. As to the kind of experiment: Microfluidic Aspergillus fumigatus Killing Assay with human neutrophils. The text has this: Microfluidic devices used to measure leukocyte migration in response to Aspergillus fumigatus with or without drug (Compound 1 or Compound 11), antifungal control (caspofungin acetate) and/or chemoattractant (fMLP) were manufactured using known microfabrication techniques. Two layers of photoresist (SU8; Microchem), the first one 10 μm thin (corresponding to the migration channels) and the second one 70 μm thick, corresponding to the focal chemotactic chambers (FCCs) were patterned on one silicon wafer sequentially using two photolithographic masks and processing cycles according to the instructions from the manufacturer. The wafer with patterned photoresist was used as a mold to produce polydimethylsiloxane (PDMS) (Fisher Scientific) devices, which were then bonded to the base of glass-bottom 12- or 24-well plates, using an oxygen plasma machine (Nordson-March).
Aspergillus fumigatus strain AF293 expressing either cytosolic red fluorescent protein (RFP) or green fluorescent protein (GFP) was grown on Sabouraud dextrose agar plates supplemented with 100 μg/mL ampicillin at 30° C. for 3-4 days. Conidia were harvested by gentle scraping followed by washing in ice-cold phosphate buffered saline (PBS) three times. Conidia were immediately used or stored at 4° C. for use within one week.
De-identified, fresh human blood samples from healthy volunteers, aged 18 years and older, who were not receiving immunosuppressants, were purchased from Research Blood Components, LLC. Peripheral blood was drawn in tubes containing a final concentration of 5 mM EDTA (Vacutainer; Becton Dickinson) and processed within 2 h of blood collection. Using a sterile technique, neutrophils were isolated from whole blood using HetaSep followed by the EasySep Human Neutrophil Enrichment Kit ([…] Technologies) following the manufacturer's protocol. The purity of neutrophils was assessed to be >98% using the Sysmex KX-21N Hematology Analyzer (Sysmex America, Inc.). White blood cells were isolated using Hetasep followed by a 5 min spin down and wash with 1×PBS. White blood cells were stained with Hoechst (32.4 μM) (Sigma) following the manufacture's protocols. The final aliquots of white blood cells were resuspended in RPMI plus 10% fetal bovine serum (FBS−stock 50 mL FBS/450 mL RPMI) (Sigma-Aldrich) at a concentration of 20,000 cells/2 μL and kept at 37° C. Cells were then immediately introduced into the microfluidic device for the chemotaxis and Aspergillus fumigatus killing assay. All experiments were repeated at least three times with neutrophils or white blood cells from three different healthy donors.
Immediately after bonding to the well plate, donut-shaped devices were filled with Aspergillus fumigatus conidia at a concentration of 10^6 cells/mL with or without either Compound 1 or Compound 11 [10 nM], caspofungin acetate [10 nM] and/or a solution of the chemoattractant N-formyl-methionyl-leucyl-phenylalanine (fMLP) [100 nM](Sigma-Aldrich, St. Louis, Mo.). The device was then placed in a vacuum for 15 min. The solution filled all of the FCCs as the air was displaced. The devices were then vigorously washed five times with 1×PBS to remove any residual Aspergillus fumigatus conidia, drug or chemoattractant that was outside of the FCCs. The device was then submerged in 0.5 mL of cell media. Neutrophils or white blood cells (20,000 cells/2 μL) were then pipetted into the cell loading chamber (CLC) using a gel-loading pipette tip. Neutrophil migration into the migration channel toward the FCC started immediately and was recorded using time-lapse imaging on a fully automated Nikon TiE microscope (10× magnification) with biochamber heated to 37° C. with 5% carbon dioxide gas. Image analysis of cell migration counts and fungi growth was analyzed by hand using Image J software.
Image analysis of cell migration counts and fungi growth was analyzed by hand using Image J software.

For `CC[C@H](C)C[C@H](C)CCCCCCCCC(=O)N[C@H]1C[C@@H](O)[C@@H](NCCN)NC(=O)[C@@H]2[C@@H](O)CCN2C(=O)[C@H]([C@H](O)CCNC(=O)[C@H](CCSC)NC(=O)[C@H](CC(C)C)NC(=O)[C@H](CCSC)NC=O)NC(=O)[C@H]([C@H](O)[C@@H](O)c2ccc(O)cc2)NC(=O)[C@@H]2C[C@@H](O)CN2C(=O)[C@H]([C@@H](C)O)NC1=O` [Compound 28], the MIC in test [1] was found to be 1 µg/mL (≈ 0.668 µM); in test [2] it was 2 µg/mL (≈ 1.34 µM); in test [3], 8 µg/mL (≈ 5.34 µM); in [4], 8 µg/mL (≈ 5.34 µM). Also, the MEC in test [5] was 0.12 µg/mL; in [6] it was 0.25 µg/mL; in test [7] it was 0.25 µg/mL; in test [8], 0.25 µg/mL; in test [9] it was 0.25 µg/mL. Further, the “% Neutrophil Migration” value in [10] (conc 0.001 μg/mL) is −0.4%; in test [10] (conc 0.01 μg/mL), 2.2%; in [10] (conc 0.1 μg/mL) it was 43.4%; in test [10] (conc 1 μg/mL), −0.2%; in [10] (conc 10 μg/mL), −7.4%.

For `CC[C@H](C)C[C@H](C)CCCCCCCCC(=O)N[C@H]1C[C@@H](O)[C@@H](NCCN)NC(=O)[C@@H]2[C@@H](O)CCN2C(=O)[C@H]([C@H](O)CCNC(=O)[C@H](CO)NC(=O)[C@H](CC(C)C)NC(=O)[C@H](CCSC)NC=O)NC(=O)[C@H]([C@H](O)[C@@H](O)c2ccc(O)cc2)NC(=O)[C@@H]2C[C@@H](O)CN2C(=O)[C@H]([C@@H](C)O)NC1=O` [Compound 29], the MIC in test [1] was 2 µg/mL (≈ 1.38 µM); in test [2], 8 µg/mL (≈ 5.51 µM); in [3] it was 32 µg/mL (≈ 22 µM); in test [4], above 32 µg/mL. Moreover, the MEC is 0.25 µg/mL in [5]; 0.5 µg/mL in [6]; 0.25 µg/mL in test [7]; 0.25 µg/mL in test [8]; 0.25 µg/mL in test [9]. Also, the “% Neutrophil Migration” value in test [10] (conc 0.001 μg/mL) is listed as 1.4%; in test [10] (conc 0.01 μg/mL) it was 0.1%; in test [10] (conc 0.1 μg/mL) it was 2.2%; in [10] (conc 1 μg/mL), 11.0%; in test [10] (conc 10 μg/mL), 8.4%.

Regarding `CSCC[C@H](NC=O)C(=O)N[C@@H](CC(C)C)C(=O)N[C@@H](Cc1ccccc1)C(=O)O` [fMLP, N-formyl-methionyl-leucyl-phenylalanine, reference compound], the “neutrophil (NF) migration counts (FIG. 1)” value in test [11] (100 nM fMLP alone, no A. fumigatus) is recorded as “increased NF migration”; in [11] (in the presence of Aspergillus fumigatus, Compound 1, Compound 11, caspofungin acetate 10 nM, fMLP 100 nM), “increased NF migration”. In test [11] (with A. fumigatus, three healthy blood donors, t=0, 8, and 16 hours), the “timecourse of neutrophil (PMNs) migration in FCCs (FIG. 4)” value is on record as “migration of PMNs”. The “timecourse of A. fumigatus (Af) growth in FCCs (FIG. 4)” value in [12] (in presence of PMNs, three healthy blood donors, t=0, 8, and 16 hours) is given as “inhibition of growth of Af”. Also, the “percent hyphal growth compared to remaining conidia (FIG. 2)” value in test [12] (with added neutrophils (NFs), Compound 1, Compound 11, caspofungin acetate 10 nM, fMLP 100 nM, hyphae by 18 hours) was “inhibition of Aspergillus fumigatus hyphal growth; also recorded: able to suppress hyphal growth”.
